Assay results: ChEMBL document CHEMBL4219265, “Piperlongumine derivative, CG-06, inhibits STAT3 activity by direct binding to STAT3 and regulating the reactive oxygen species in DU145 prostate carcinoma cells” (Bioorg Med Chem Lett, 2018)

How the values were obtained:
DU-145 [1] = assay: Induction of apoptosis in human DU145 cells at 5 uM after 48 hrs by flow cytometry (reference value: 0.61%); format: functional
[2] = target: T1, Signal transducer and activator of transcription 3 (Homo sapiens, UniProt P40763); assay: Inhibition of STAT3 in human DU145 cells assessed as ratio of Bcl-2 protein level to tubulin protein level at 5 uM after 48 hrs by Western blot analysis (reference value: 1); format: cell-based
T1 sequence (P40763 whole entry): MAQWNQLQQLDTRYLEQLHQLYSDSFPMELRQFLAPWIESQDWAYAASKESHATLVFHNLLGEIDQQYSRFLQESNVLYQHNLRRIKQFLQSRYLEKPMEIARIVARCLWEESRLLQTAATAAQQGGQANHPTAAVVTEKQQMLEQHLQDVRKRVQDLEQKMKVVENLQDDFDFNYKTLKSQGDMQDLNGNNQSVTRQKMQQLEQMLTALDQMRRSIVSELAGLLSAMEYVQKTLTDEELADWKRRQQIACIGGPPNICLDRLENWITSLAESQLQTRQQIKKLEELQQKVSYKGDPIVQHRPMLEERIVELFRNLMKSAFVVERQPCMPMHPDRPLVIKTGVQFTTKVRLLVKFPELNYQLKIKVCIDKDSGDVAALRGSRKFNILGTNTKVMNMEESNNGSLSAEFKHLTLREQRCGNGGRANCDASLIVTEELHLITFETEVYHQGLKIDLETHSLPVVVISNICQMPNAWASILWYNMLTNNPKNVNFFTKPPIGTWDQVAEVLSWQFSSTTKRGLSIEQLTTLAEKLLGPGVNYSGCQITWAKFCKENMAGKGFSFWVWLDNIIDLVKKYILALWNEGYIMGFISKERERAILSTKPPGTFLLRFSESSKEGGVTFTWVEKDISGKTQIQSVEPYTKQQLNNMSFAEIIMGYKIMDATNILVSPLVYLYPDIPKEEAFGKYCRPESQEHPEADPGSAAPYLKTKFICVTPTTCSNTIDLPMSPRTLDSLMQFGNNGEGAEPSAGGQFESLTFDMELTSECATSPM

[3] = target: T1, Signal transducer and activator of transcription 3; assay: Inhibition of STAT3 phosphorylation at Tyr705 residues in human DU145 cells assessed as ratio of phosphorylated STAT3 protein level to GAPDH protein level at 5 uM after 3 hrs by Western blot analysis (reference value: 1); format: cell-based
[4] = target: T1, Signal transducer and activator of transcription 3; assay: Inhibition of STAT3 (unknown origin) expressed in human HCT116 cells after 24 hrs by dual-luciferase reporter gene assay; format: cell-based
[5] = target: T1, Signal transducer and activator of transcription 3; assay: Inhibition of STAT3-induced ERK1/2 phosphorylation in human DU145 cells assessed as ratio of phosphorylated ERK1/2 protein level to GAPDH protein level at 5 uM after 3 hrs by Western blot analysis (reference value: 1); format: cell-based
DU-145 [6] = assay: Effect on total STAT3 protein level in human DU145 cells assessed as ratio of STAT3 protein level to GAPDH protein level at 5 uM after 6 hrs by Western blot analysis (reference value: 1); format: ADME, cell-based; conditions: du-145, 6 h
DU-145 [7] = assay: Effect on total STAT3 protein level in human DU145 cells assessed as ratio of STAT3 protein level to GAPDH protein level at 5 uM after 3 hrs by Western blot analysis (reference value: 1); format: ADME, cell-based; conditions: du-145, 3 h
DU-145 [8] = assay: Effect on total STAT3 protein level in human DU145 cells assessed as ratio of STAT3 protein level to GAPDH protein level at 5 uM after 12 hrs by Western blot analysis (reference value: 1); format: ADME, cell-based; conditions: du-145, 12 h
[9] = target: T1, Signal transducer and activator of transcription 3; assay: Inhibition of STAT3-induced ERK1/2 phosphorylation in human DU145 cells assessed as ratio of phosphorylated ERK1/2 protein level to GAPDH protein level at 5 uM after 6 hrs by Western blot analysis (reference value: 1); format: cell-based
DU-145 [10] = assay: Cell cycle arrest in human DU145 cells assessed as accumulation at G2/M phase at 5 uM after 48 hrs by flow cytometry (reference value: 18.12%); format: functional
DU-145 [11] = assay: Growth inhibition of human DU145 cells after 48 hrs by WST-1 assay; format: functional; conditions: DU-145, 48 h
[12] = target: T1, Signal transducer and activator of transcription 3; assay: Binding affinity to STAT3 in human DU145 cell lysates assessed as reduction in pronase-induced STAT3 digestion by measuring ratio of STAT3 protein level to GAPDH protein level incubated for 1 hr followed by 0.05% pronase addition for 10 mins by Western blot analysis
DU-145 [13] = assay: Cell cycle arrest in human DU145 cells assessed as accumulation at S phase at 5 uM after 12 hrs by flow cytometry (reference value: 6.6%); format: functional
DU-145 [14] = assay: Effect on total STAT3 protein level in human DU145 cells assessed as ratio of STAT3 protein level to GAPDH protein level at 0.1 uM after 24 hrs by Western blot analysis (reference value: 1); format: ADME, cell-based; conditions: du-145, 24 h
DU-145 [15] = assay: Cell cycle arrest in human DU145 cells assessed as accumulation at S phase at 5 uM after 24 hrs by flow cytometry (reference value: 6.6%); format: functional
[16] = target: T1, Signal transducer and activator of transcription 3; assay: Inhibition of STAT3 phosphorylation in human DU145 cells assessed as ratio of phosphorylated STAT3 protein level to GAPDH protein level at 5 uM preincubated with NAC for 1 hr followed by compound addition for 1 hr by Western blot analysis (reference value: 0.3); format: cell-based
DU-145 [17] = assay: Induction of apoptosis in human DU145 cells at 5 uM after 12 hrs by flow cytometry (reference value: 0.61%); format: functional
DU-145 [18] = assay: Cell cycle arrest in human DU145 cells assessed as accumulation at G0/G1 phase at 5 uM after 48 hrs by flow cytometry (reference value: 24.07%); format: functional
[19] = target: T1, Signal transducer and activator of transcription 3; assay: Inhibition of STAT3 phosphorylation at Tyr705 residues in human DU145 cells at 5 uM after 24 hrs by Western blot analysis; format: cell-based
[20] = target: T1, Signal transducer and activator of transcription 3; assay: Inhibition of STAT3 in human DU145 cells assessed as ratio of cyclin D1 protein level to tubulin protein level at 5 uM after 48 hrs by Western blot analysis (reference value: 1); format: cell-based
DU-145 [21] = assay: Effect on total STAT3 protein level in human DU145 cells assessed as ratio of STAT3 protein level to GAPDH protein level at 5 uM after 0.5 hrs by Western blot analysis (reference value: 1); format: ADME, cell-based; conditions: du-145, 0.5 h
DU-145 [22] = assay: Effect on total STAT3 protein level in human DU145 cells assessed as ratio of STAT3 protein level to GAPDH protein level at 1 uM after 24 hrs by Western blot analysis (reference value: 1); format: ADME, cell-based; conditions: du-145, 24 h
DU-145 [23] = assay: Induction of apoptosis in human DU145 cells at 5 uM after 24 hrs by flow cytometry (reference value: 0.61%); format: functional
[24] = target: T1, Signal transducer and activator of transcription 3; assay: Inhibition of STAT3 phosphorylation at Tyr705 residues in human DU145 cells assessed as ratio of phosphorylated STAT3 protein level to GAPDH protein level at 0.1 uM after 24 hrs by Western blot analysis (reference value: 1); format: cell-based
[25] = target: T1, Signal transducer and activator of transcription 3; assay: Binding affinity to STAT3 in human DU145 cell lysates assessed as reduction in pronase-induced STAT3 digestion by measuring ratio of STAT3 protein level to GAPDH protein level at 50 uM incubated for 1 hr followed by 0.02% pronase addition for 10 mins by Western blot analysis (reference value: 0.6)
PC-3 = assay: Growth inhibition of human PC3 cells after 48 hrs by WST-1 assay; format: functional; conditions: PC-3, 48 h
DU-145 [26] = assay: Effect on total STAT3 protein level in human DU145 cells assessed as ratio of STAT3 protein level to GAPDH protein level at 0.5 uM after 24 hrs by Western blot analysis (reference value: 1); format: ADME, cell-based; conditions: du-145, 24 h
[27] = target: T1, Signal transducer and activator of transcription 3; assay: Inhibition of STAT3 phosphorylation at Tyr705 residues in human DU145 cells assessed as ratio of phosphorylated STAT3 protein level to GAPDH protein level at 5 uM after 6 hrs by Western blot analysis (reference value: 1); format: cell-based
[28] = target: T1, Signal transducer and activator of transcription 3; assay: Binding affinity to STAT3 in human DU145 cell lysates assessed as reduction in pronase-induced STAT3 digestion by measuring ratio of STAT3 protein level to GAPDH protein level at 50 uM incubated for 1 hr followed by 0.005% pronase addition for 10 mins by Western blot analysis (reference value: 0.9)
DU-145 [29] = assay: Effect on total STAT3 protein level in human DU145 cells assessed as ratio of ERK1/2 protein level to GAPDH protein level at 5 uM preincubated with NAC for 1 hr followed by compound addition for 1 hr by Western blot analysis (reference value: 1); format: ADME, cell-based; conditions: du-145, 1 h

Ratio [2]: 0.7
Ratio [3]: 0.2
IC50 [4]: 10 µM
inhibition [4]: Dose-dependent effect
Ratio [5]: 2
Ratio (DU-145 [6]): 1
Ratio (DU-145 [7]): 1
Ratio (DU-145 [8]): 0.9
Ratio [9]: 2.2
GI50 (DU-145 [11]): 0.9 µM
Activity [12]: Dose-dependent effect
Ratio (DU-145 [14]): 1.1
Ratio [16]: 1.2
inhibition [19]: > 70%
Ratio [20]: 0.9
Ratio (DU-145 [21]): 1
Ratio (DU-145 [22]): 1.1
Ratio [24]: 0.9
Ratio [25]: 0.6
GI50 (PC-3): > 10 µM
Ratio (DU-145 [26]): 1.1
Ratio [27]: 0.2
Ratio [28]: 0.8
Ratio (DU-145 [29]): 0.7
Compound: C=C(C)C(=O)N(Cc1ccc(Br)cc1)C(=O)/C=C/c1cc(OC)c(OC)c(OC)c1
Activity (DU-145 [1]): 7.61%
Activity (DU-145 [10]): 18.95%
Activity (DU-145 [13]): 8.76%
Activity (DU-145 [15]): 8.27%
Activity (DU-145 [17]): 0.65%
Activity (DU-145 [18]): 26.59%
Activity (DU-145 [23]): 0.72%
